This is an account of results in patent EP4722203A1, “3,4-DIHYDROPHTHALAZIN-1(2H)-ONE DERIVATIVE, AND PREPARATION METHOD THEREFOR AND USE THEREOF” (Academy of Military Medical Sciences, priority 2023, dated 2024).

The structures appear in SMILES notation.

Format in all cases: cell-based
One experiment concerns WSU-DLCL-2 cells. Kind of experiment: Antiproliferative activity, CCK-8 assay. The settings on record: Homo sapiens, WSUDLCL2; 144 hours incubation, CCK-8, absorbance at 450 nm. Here is the method:
(§1) The cell models used in this example were human hematologic tumor cells, including NCI-H929, RPMI-8226, MV-4-11, U937 and WSU-DLCL-2. Some of the compounds of the present invention were selected to determine their inhibitory activity against the proliferation of NCI-H929, RPMI-8226, MV-4-11, U937, and WSU-DLCL-2 cells.
(§2) • ① The selected compounds were dissolved in DMSO to prepare 10 mM stock solutions. Compounds used within three months should be stored at room temperature in a desiccator; others could be stored at -20°C for long-term storage. • ② The above stock solutions and the positive reference compound pomalidomide were diluted with DMSO. Their initial concentrations were 10 µM. In the experiments of NCI-H929 and RPMI-8226 cells, 3-fold serial dilution with 11 concentration points was performed, with the lowest concentration of 0.00047 µM. The resulting solutions were shaken on a shaker for 5 minutes.
(§3) • ① The NCI-H929, RPMI-8226, MV-4-11, U937, and WSU-DLCL-2 cells in logarithmic growth phase were inoculated in a 96-well plate, 20,000 to 30,000 cells per well, and the plate was pre-cultured for 24 hours in an incubator (at 37°C and 5% CO2). • ② The culture medium in the plate was replaced, and the compounds and the positive control with corresponding concentrations were added to the plated at a volume of 50 µl. • ③ The plate was incubated for 144 hours in an incubator, then 15 µl of CCK-8 solution was added to each well, and incubated in the incubator for another 1-4 hours. • ④ The absorbance at 450 nm was measured using a microplate reader.
(§4) • ① Calculating % Inhibition: [formula] • ② Calculating IC50 value of compound and plotting dose-response curve: The IC50 value was calculated by fitting the % Inhibition and the logarithm of compound concentration to a nonlinear regression (dose response-variable slope) by using GraphPad 6.0. • Y = Bottom + (Top - Bottom) / (1 + 10^((LogIC50 - X) * HillSlope)) • X: log of inhibitor concentration; Y: % Inhibition.
(§5) After calculating % Inhibition, a dose-response curve was plotted with the logarithm of the test compound concentration as the x-axis and the average cell viability as the y-axis, and the IC50 value was obtained by fitting.

The next experiment deals with U937 cells. Kind of experiment: Antiproliferative activity, CCK-8 assay. The settings on record: Homo sapiens, U-937; 144 hours incubation, CCK-8, absorbance at 450 nm. Here is the method:
as §1, §2, §3, §4, §5

A further experiment concerns RPMI-8226 cells. In words: Antiproliferative activity, CCK-8 assay. The settings on record: Homo sapiens, 144 hours incubation, CCK-8, absorbance at 450 nm. Here is the method: as §1, §2, §3, §4, §5
In another experiment the test system is MV-4-11 cells. In words: Antiproliferative activity, CCK-8 assay. The following applies: Homo sapiens, MV4-11; 144 hours incubation, CCK-8, absorbance at 450 nm. Here is the method: as §1, §2, §3, §4, §5
A further experiment deals with NCI-H929 cells. In words: Antiproliferative activity, CCK-8 assay. The settings on record: Homo sapiens, 144 hours incubation, CCK-8, absorbance at 450 nm, read-out: IC50 (µM) H-929. The protocol:
as §1, §2, §3, §4, §5

Experiment [1] relates to NCI-H929-pomalidomide-R cells. Kind of experiment: Antiproliferative activity against resistant cells, CCK-8 assay. The following applies: Homo sapiens, 144 hours incubation. Here is the method: (§6) In this example, lenalidomide-resistant human multiple myeloma cells, including NCI-H929 (NCI-H929-Lenalidomide-R) and RPMI-8226 (RPMI-8226-Lenalidomide-R), and pomalidomide-resistant human multiple myeloma cells, including NCI-H929 (NCI-H929-pomalidomide-R) and RPMI-8226 (RPMI-8226-pomalidomide-R), were selected as cell models to determine the inhibitory activity of compound I-8 of the present invention against the proliferation of the resistant cells.
(§7) • ① I-8 was dissolved in DMSO to prepare a 10 mM stock solution. Compounds used within three months should be stored at room temperature in a desiccator; others could be stored at -20°C for long-term storage. • ② The I-8 stock solution and the reference compounds lenalidomide and pomalidomide were all diluted with DMSO. Their initial concentrations were 10 µM. In the experiments of lenalidomide-resistant human multiple myeloma cells (NCI-H929 (NCI-H929-Lenalidomide-R) and RPMI-8226 (RPMI-8226-Lenalidomide-R) and pomalidomide-resistant human multiple myeloma cells (NCI-H929 (NCI-H929-pomalidomide-R) and RPMI-8226 (RPMI-8226-pomalidomide-R), 3-fold serial dilution with 11 concentration points was performed, with the lowest concentration of […]. The resulting solutions were shaken on a shaker for 5 minutes.
(§8) • ① The NCI-H929-Lenalidomide-R, RPMI-8226-Lenalidomide-R, NCI-H929-pomalidomide-R, and RPMI-8226-pomalidomide-R cells in logarithmic growth phase were inoculated in a 96-well plate, 20,000 to 30,000 cells per well, and the plate was pre-cultured for 24 hours in an incubator (at 37°C and 5% CO2). • ® The culture medium in the plate was replaced, and the compounds and the positive controls with corresponding concentrations were added to the plated at a volume of 50 µL. • ③ The plate was incubated for 144 hours in an incubator, then 15 µL of CCK-8 solution was added to each well, and the plate was incubated in the incubator for another 1-4 hours. • ④ The absorbance at 450 nm was measured using a microplate reader.
(§9) • ① Calculating % Inhibition: [formula] • ② Calculating IC50 value of compound and plotting dose-response curve: The IC50 value was calculated by fitting the % Inhibition and the logarithm of compound concentration to a nonlinear regression (dose response-variable slope) by using GraphPad 6.0. Y = Bottom + (Top−Bottom)/(1+10^(∧)((LogIC50−X)*HillSlope)) [formula] X: log of inhibitor concentration; Y: % Inhibition.
as §5

Experiment [2] has as its system RPMI-8226-Lenalidomide-R cells. The description is as above. The settings on record: Homo sapiens, 144 hours incubation. The protocol: as §6, §7, §8, §9, §5
The subject of experiment [3] is RPMI-8226-pomalidomide-R cells. The experiment is described as above. The following applies: Homo sapiens, 144 hours incubation. The protocol:
as §6, §7, §8, §9, §5

The subject of experiment [4] is NCI-H929-Lenalidomide-R cells. The description is as above. The following applies: Homo sapiens, 144 hours incubation. The protocol: as §6, §7, §8, §9, §5

Regarding `CN1Cc2c(NCc3ccc(CN4CCN(c5ccc(F)cc5)CC4)cc3)cccc2C(=O)N1C1CCC(=O)NC1=O` (stereo not drawn) [I-6], the IC50 turned out to be 0.048 µM with WSU-DLCL-2 cells; 0.0522 µM in the experiment with U937 cells; 1.26 µM in the experiment with RPMI-8226 cells; 0.0311 µM in the experiment with MV-4-11 cells; 0.032 µM with NCI-H929 cells.
In the same order, the values of `CN1Cc2c(NCc3ccc(CN4CCN(c5ccc(C#N)cc5)CC4)cc3)cccc2C(=O)N1C1CCC(=O)NC1=O` (stereo not drawn) [I-7] are 0.053 µM, 0.0348 µM, 0.442 µM, 0.0155 µM and 0.028 µM.
In the case of `CN1Cc2c(cccc2[N+](=O)[O-])C(=O)N1C1CCC(=O)NC1=O` (stereo not drawn) [I-9, 3-(3-methyl-5-nitro-1-oxo-3,4-dihydrophthalazin-2(1H)-yl)piperidin-2,6-dione], the IC50 with WSU-DLCL-2 cells was 0.23 µM; in the experiment with U937 cells it was over 10 µM; in the experiment with RPMI-8226 cells, 0.457 µM; with MV-4-11 cells it was 0.39 µM; in the experiment on NCI-H929 cells it was over 10 µM.
For `CN1Cc2cc(N)ccc2C(=O)N1C1CCC(=O)NC1=O` (stereo not drawn) [I-10, 3-(6-amino-3-methyl-1-oxo-3,4-dihydrophthalazin-2(1H)-yl)piperidin-2,6-dione], the IC50 with WSU-DLCL-2 cells is 0.7 µM; in the experiment on U937 cells it was over 10 µM; in the experiment with RPMI-8226 cells, 0.38 µM; in the experiment on MV-4-11 cells it was 0.215 µM; in the experiment with NCI-H929 cells, 5.85 µM.
Take `CN1Cc2cc([N+](=O)[O-])ccc2C(=O)N1C1CCC(=O)NC1=O` (stereo not drawn) [I-11, 3-(3-methyl-6-nitro-1-oxo-3,4-dihydrophthalazin-2(1H)-yl)piperidin-2,6-dione]: the IC50 was determined as 2.65 µM in the experiment with WSU-DLCL-2 cells; 4.13 µM with U937 cells; 2.97 µM in the experiment with RPMI-8226 cells; 0.294 µM in the experiment on MV-4-11 cells; 2.54 µM with NCI-H929 cells.
In the same order, the values of `CN1Cc2c(N)cc(F)cc2C(=O)N1C1CCC(=O)NC1=O` (stereo not drawn) [I-12, 3-(5-amino-7-fluoro-3-methyl-1-oxo-3,4-dihydrophthalazin-2(1H)-yl)piperidin-2,6-dione] are 3.69 µM, 2.3 µM, 0.499 µM, 0.874 µM and over 10 µM.
The corresponding values for `CN1Cc2c(cc(F)cc2[N+](=O)[O-])C(=O)N1C1CCC(=O)NC1=O` (stereo not drawn) [I-13, 3-(7-fluoro-3-methyl-5-nitro-1-oxo-3,4-dihydrophthalazin-2(1H)-yl)piperidin-2,6-dione] are 0.88 µM, 1.11 µM, 0.204 µM, over 10 µM and 0.85 µM.
In the case of `Nc1cccc2c1CN(C1CCC(=O)NC1=O)C2=O` (stereo not drawn) [Lenalidomide], the IC50 in experiment [1], in experiment [2], in experiment [3] and in [4] was over 100 µM each time.
